From the NIST ThermoML archive (doi:10.1021/je060271a)

Details: Liquid, Vibrating tube method

CCCC(=O)OCC(COC(=O)CCC)(COC(=O)CCC)COC(=O)CCC [pentaerythritol tetrabutyrate]
Details	mass density [kg/m3]
323.14 K, 26626 kPa	1043
323.14 K, 26670 kPa	1042.8
323.14 K, 26714 kPa	1042.8
323.14 K, 26767 kPa	1043
323.14 K, 26810 kPa	1043
323.14 K, 26863 kPa	1043
323.14 K, 26908 kPa	1043.1
323.14 K, 26952 kPa	1043.1
323.14 K, 26996 kPa	1043.1
323.14 K, 27582 kPa	1043.5
323.14 K, 27638 kPa	1043.5
323.14 K, 27684 kPa	1043.6
323.14 K, 27740 kPa	1043.6
323.14 K, 27788 kPa	1043.6
323.14 K, 27834 kPa	1043.6
323.14 K, 27946 kPa	1043.8
323.14 K, 28044 kPa	1043.9
323.14 K, 28300 kPa	1044
323.14 K, 28359 kPa	1044
323.14 K, 28792 kPa	1044.3
323.14 K, 28843 kPa	1044.3
323.14 K, 28902 kPa	1044.3
323.14 K, 28941 kPa	1044.3
323.14 K, 29012 kPa	1044.3
323.14 K, 29875 kPa	1044.9
323.14 K, 29913 kPa	1045
323.14 K, 29948 kPa	1045.1
323.14 K, 29992 kPa	1045
323.14 K, 30269 kPa	1045.3
323.14 K, 30315 kPa	1045.2
323.14 K, 30353 kPa	1045.4
323.14 K, 30391 kPa	1045.3
323.14 K, 30431 kPa	1045.3
323.14 K, 30476 kPa	1045.2
323.14 K, 30514 kPa	1045.3
323.14 K, 32076 kPa	1046.4
323.14 K, 32110 kPa	1046.4
323.14 K, 32957 kPa	1046.8
323.14 K, 33000 kPa	1046.9
323.14 K, 33035 kPa	1046.8
323.14 K, 33078 kPa	1046.9
323.14 K, 33115 kPa	1046.9
323.14 K, 33350 kPa	1047
323.14 K, 33751 kPa	1047.3
323.14 K, 33878 kPa	1047.3
323.14 K, 33919 kPa	1047.4
323.14 K, 33970 kPa	1047.4
323.15 K, 3349 kPa	1027.1
323.15 K, 3467.5 kPa	1027.3
323.15 K, 3496.8 kPa	1027.3
323.15 K, 3562.1 kPa	1027.3
323.15 K, 5277.4 kPa	1028.8
323.15 K, 5278.3 kPa	1028.7
323.15 K, 5281.4 kPa	1028.8
323.15 K, 5284.5 kPa	1028.8
323.15 K, 5287 kPa	1028.7
323.15 K, 5288.9 kPa	1028.7
323.15 K, 5289.7 kPa	1028.8
323.15 K, 5290.8 kPa	1028.8
323.15 K, 5291.3 kPa	1028.8
323.15 K, 5291.6 kPa	1028.8
323.15 K, 5292 kPa	1028.8
323.15 K, 5292.5 kPa	1028.8
323.15 K, 5292.8 kPa	1028.8
323.15 K, 5293.4 kPa	1028.7
323.15 K, 5293.7 kPa	1028.9
323.15 K, 5293.9 kPa	1028.8
323.15 K, 5294 kPa	1028.7
323.15 K, 5294.2 kPa	1028.9
323.15 K, 5295.1 kPa	1028.9
323.15 K, 5295.9 kPa	1029
323.15 K, 5296.1 kPa	1028.7
323.15 K, 5296.6 kPa	1028.7
323.15 K, 5297 kPa	1028.8
323.15 K, 5297.2 kPa	1028.8
323.15 K, 5297.3 kPa	1028.9
323.15 K, 5297.5 kPa	1028.8
323.15 K, 5297.8 kPa	1028.8
323.15 K, 5324.7 kPa	1028.9
323.15 K, 5344.4 kPa	1028.9
323.15 K, 5347.8 kPa	1028.8
323.15 K, 5370.7 kPa	1028.8
323.15 K, 5375.9 kPa	1028.8
323.15 K, 5394.4 kPa	1028.9
323.15 K, 5418.8 kPa	1029
323.15 K, 5422.4 kPa	1028.9
323.15 K, 5445.4 kPa	1028.9
323.15 K, 5446.8 kPa	1028.9
323.15 K, 5456 kPa	1028.9
323.15 K, 5465.5 kPa	1028.9
323.15 K, 5470.8 kPa	1029
323.15 K, 5493.7 kPa	1028.9
323.15 K, 5495.4 kPa	1028.9
323.15 K, 5499.9 kPa	1029
323.15 K, 5505.6 kPa	1028.9
323.15 K, 5511.7 kPa	1028.8
323.15 K, 5524.8 kPa	1029
323.15 K, 5529.5 kPa	1029
323.15 K, 5540.8 kPa	1028.9
323.15 K, 5549.5 kPa	1029
323.15 K, 5554.5 kPa	1029
323.15 K, 5560.3 kPa	1028.9
323.15 K, 5567.9 kPa	1028.9
323.15 K, 5573.4 kPa	1028.9
323.15 K, 5575 kPa	1029
323.15 K, 5578 kPa	1029
323.15 K, 5582.5 kPa	1029
323.15 K, 5586.4 kPa	1028.9
323.15 K, 5590.4 kPa	1029.1
323.15 K, 5594.2 kPa	1029
323.15 K, 5605.6 kPa	1029
323.15 K, 5630.8 kPa	1029
323.15 K, 5657.1 kPa	1029.1
323.15 K, 5683.6 kPa	1029.1
323.15 K, 5710.2 kPa	1029.1
323.15 K, 5742 kPa	1029.1
323.15 K, 5769.2 kPa	1029.2
323.15 K, 5797 kPa	1029.2
323.15 K, 5824.3 kPa	1029.2
323.15 K, 5857.7 kPa	1029.2
323.15 K, 5886.4 kPa	1029.2
323.15 K, 5945.6 kPa	1029.2
323.15 K, 5970.4 kPa	1029.2
323.15 K, 6001.7 kPa	1029.3
323.15 K, 6023.4 kPa	1029.3
323.15 K, 6053.9 kPa	1029.4
323.15 K, 6080.4 kPa	1029.4
323.15 K, 6107 kPa	1029.4
323.15 K, 6138.8 kPa	1029.4
323.15 K, 6163.7 kPa	1029.4
323.15 K, 6187.1 kPa	1029.4
323.15 K, 6215.2 kPa	1029.6
323.15 K, 6240.1 kPa	1029.4
323.15 K, 6265 kPa	1029.5
323.15 K, 6287.3 kPa	1029.5
323.15 K, 6301.7 kPa	1029.5
323.15 K, 6311 kPa	1029.5
323.15 K, 6319.5 kPa	1029.4
323.15 K, 6327.5 kPa	1029.6
323.15 K, 6345.8 kPa	1029.6
323.15 K, 6372.1 kPa	1029.6
323.15 K, 6398.4 kPa	1029.7
323.15 K, 6423.8 kPa	1029.8
323.15 K, 6456.6 kPa	1029.6
323.15 K, 6483.4 kPa	1029.6
323.15 K, 6511.5 kPa	1029.6
